From ChEMBL document CHEMBL3774317, “Design and synthesis of novel tamoxifen analogues that avoid CYP2D6 metabolism” (Eur J Med Chem, 2016) come the findings set out here.

Each structure is given as a SMILES string.

One data set has as its system ACHN. Kind of data set: Cytotoxicity against human ACHN cells assessed as cell growth at 10^-8 M after 48 hrs by SRB assay. The class given is functional. The settings on record: read-out: Activity.
The nature of data set [1]: Cytotoxicity against human RPMI8226 cells assessed as cell growth at 10^-5 M after 48 hrs by SRB assay. The class given is functional. The note with it: RPMI-8226, 48 h, read-out: Activity. (In general: In SRB staining, fixed cells bind dye roughly in proportion to their protein.)
Data set [2] is described as follows: Cytotoxicity against human SF295 cells assessed as cell growth at 10^-8 M after 48 hrs by SRB assay. Format: functional. The note with it: SF-295, 48 h, read-out: Activity.
The test system of data set [3] is MDA-MB-231. As to the kind of experiment: Cytotoxicity against human MDA-MB-231 cells assessed as cell growth at 10^-7 M after 48 hrs by SRB assay. The class given is functional. The settings on record: MDA-MB-231, 48 h, read-out: Activity.
Data set [4] can be described thus: Cytotoxicity against human HCT15 cells assessed as cell growth at 10^-5 M after 48 hrs by SRB assay. The class given is functional. The note with it: HCT-15, 48 h, read-out: Activity.
For a further data set, the system named is M14. As to the kind of experiment: Cytotoxicity against human M14 cells assessed as cell growth at 10^-4 M after 48 hrs by SRB assay. The class given is functional. The settings on record: M14, 48 h, read-out: Activity.
Data set [5] concerns CCRF-CEM. Kind of data set: Cytotoxicity against human CCRF-CEM cells assessed as cell growth at 10^-6 M after 48 hrs by SRB assay. Format: functional. The settings on record: read-out: Activity.
A short description of data set [6]: Cytotoxicity against human COLO205 cells assessed as cell growth at 10^-6 M after 48 hrs by SRB assay. Format: functional. The settings on record: COLO 205, 48 h, read-out: Activity.
Data set [7] relates to KM12. As to the kind of experiment: Cytotoxicity against human KM12 cells assessed as cell growth at 10^-4 M after 48 hrs by SRB assay. The settings on record: KM12, 48 h, read-out: Activity. The class given is functional.
Data set [8] concerns KM12. As to the kind of experiment: Cytotoxicity against human KM12 cells assessed as cell growth at 10^-5 M after 48 hrs by SRB assay. The class given is functional. The settings on record: KM12, 48 h, read-out: Activity.
A short description of data set [9]: Cytotoxicity against human HCT15 cells assessed as cell growth at 10^-7 M after 48 hrs by SRB assay. The class given is functional. The settings on record: HCT-15, 48 h, read-out: Activity.
Data set [10] in a line: Cytotoxicity against human MOLT4 cells assessed as cell growth at 10^-8 M after 48 hrs by SRB assay. The class given is functional. The note with it: MOLT-4, 48 h, read-out: Activity.
Data set [11] is described as follows: Cytotoxicity against human HOP92 cells assessed as cell growth at 10^-7 M after 48 hrs by SRB assay. The class given is functional. The settings on record: HOP-92, 48 h, read-out: Activity.
A short description of data set [12]: Cytotoxicity against human UACC257 cells assessed as cell growth at 10^-4 M after 48 hrs by SRB assay. The class given is functional. The note with it: UACC-257, 48 h, read-out: Activity.
Another data set relates to SK-MEL-2. Kind of data set: Cytotoxicity against human SK-MEL-2 cells assessed as cell growth at 10^-7 M after 48 hrs by SRB assay. Format: functional. The note with it: SK-MEL-2, 48 h, read-out: Activity.
The test system of a further data set is MDA-MB-468. As to the kind of experiment: Cytotoxicity against human MDA-MB-468 cells assessed as cell growth at 10^-7 M after 48 hrs by SRB assay. The class given is functional. The note with it: MDA-MB-468, 48 h, read-out: Activity.
The subject of another data set is EKVX. As to the kind of experiment: Cytotoxicity against human EKVX cells assessed as cell growth at 10^-8 M after 48 hrs by SRB assay. Format: functional. The settings on record: read-out: Activity.
Data set [13] is described as follows: Cytotoxicity against human TK10 cells assessed as cell growth at 5 nM after 48 hrs by SRB assay. The class given is functional. The settings on record: TK-10, 48 h, read-out: Activity.
Data set [14] is described as follows: Cytotoxicity against human UACC257 cells assessed as cell growth at 5 uM after 48 hrs by SRB assay. Format: functional. The settings on record: UACC-257, 48 h, read-out: Activity.
Data set [15] can be described thus: Cytotoxicity against human UO31 cells assessed as cell growth at 0.5 uM after 48 hrs by SRB assay. The note with it: UO-31, 48 h, read-out: Activity. Format: functional.
Another data set deals with A549. Kind of data set: Cytotoxicity against human A549 cells assessed as cell growth at 50 uM after 48 hrs by SRB assay. Format: functional. The settings on record: A549, 48 h, read-out: Activity.
The nature of data set [16]: Cytotoxicity against human HOP92 cells assessed as cell growth at 50 nM after 48 hrs by SRB assay. The class given is functional. The note with it: HOP-92, 48 h, read-out: Activity.
A short description of data set [17]: Cytotoxicity against human UACC257 cells assessed as cell growth at 5 nM after 48 hrs by SRB assay. Format: functional. The note with it: UACC-257, 48 h, read-out: Activity.
Data set [18] is described as follows: Cytotoxicity against human SF268 cells assessed as cell growth at 50 uM after 48 hrs by SRB assay. The note with it: SF-268, 48 h, read-out: Activity. The class given is functional.
The nature of data set [19]: Cytotoxicity against human SF539 cells assessed as cell growth at 50 uM after 48 hrs by SRB assay. The class given is functional. The note with it: SF-539, 48 h, read-out: Activity.
Data set [20] in a line: Cytotoxicity against human HCC2998 cells assessed as cell growth at 0.5 uM after 48 hrs by SRB assay. The class given is functional. The note with it: HCC 2998, 48 h, read-out: Activity.
For a further data set, the system named is MCF7. As to the kind of experiment: Cytotoxicity against human MCF7 cells assessed as cell growth at 5 uM after 48 hrs by SRB assay. Format: functional. The settings on record: MCF7, 48 h, read-out: Activity.
The test system of a further data set is NCI-H322M. Kind of data set: Cytotoxicity against human NCI-H322M cells assessed as cell growth at 5 nM after 48 hrs by SRB assay. Format: functional. The note with it: read-out: Activity.
In a further data set the test system is U-251. As to the kind of experiment: Cytotoxicity against human U251 cells assessed as cell growth at 50 nM after 48 hrs by SRB assay. Format: functional. The settings on record: U-251, 48 h, read-out: Activity.
Data set [21] deals with CCRF-CEM. As to the kind of experiment: Cytotoxicity against human CCRF-CEM cells assessed as cell growth at 0.5 uM after 48 hrs by SRB assay. The class given is functional. The settings on record: read-out: Activity.
Data set [22] has as its system MDA-MB-231. Kind of data set: Cytotoxicity against human MDA-MB-231 cells assessed as cell growth at 5 nM after 48 hrs by SRB assay. Format: functional. The note with it: MDA-MB-231, 48 h, read-out: Activity.
The nature of data set [23]: Cytotoxicity against human MOLT4 cells assessed as cell growth at 50 uM after 48 hrs by SRB assay. The class given is functional. The note with it: MOLT-4, 48 h, read-out: Activity.
Data set [24] in a line: Cytotoxicity against human HL-60(TB) cells assessed as cell growth at 50 nM after 48 hrs by SRB assay. The settings on record: HL-60, 48 h, read-out: Activity. The class given is functional.
Data set [25] can be described thus: Cytotoxicity against human PC3 cells assessed as cell growth at 50 uM after 48 hrs by SRB assay. The class given is functional. The settings on record: PC-3, 48 h, read-out: Activity.
Data set [26] in a line: Cytotoxicity against human Caki1 cells assessed as cell growth at 5 nM after 48 hrs by SRB assay. Format: functional. The settings on record: CAKI-1, 48 h, read-out: Activity.
A short description of data set [27]: Cytotoxicity against human OVCAR3 cells assessed as cell growth at 0.5 uM after 48 hrs by SRB assay. The class given is functional. The settings on record: OVCAR-3, 48 h, read-out: Activity.
Data set [28] can be described thus: Cytotoxicity against human HL-60(TB) cells assessed as cell growth at 5 nM after 48 hrs by SRB assay. The note with it: HL-60, 48 h, read-out: Activity. Format: functional.
Data set [29] can be described thus: Metabolic stability in human liver microsomes assessed as remaining parent compound level at 10 uM after 3 hrs in absence of NAPDH by LC/MS analysis. The class given is ADME. The settings on record: read-out: Drug metabolism.
Data set [30] in a line: Cytotoxicity against human IGROV1 cells assessed as cell growth at 0.5 uM after 48 hrs by SRB assay. Format: functional. The note with it: IGROV-1, 48 h, read-out: Activity.
A short description of data set [31]: Cytotoxicity against human UACC257 cells assessed as cell growth at 50 nM after 48 hrs by SRB assay. Format: functional. The note with it: UACC-257, 48 h, read-out: Activity.
Data set [32] in a line: Cytotoxicity against human SF295 cells assessed as cell growth at 0.5 uM after 48 hrs by SRB assay. The class given is functional. The settings on record: SF-295, 48 h, read-out: Activity.
The nature of data set [33]: Cytotoxicity against human NCI-ADR-RES cells assessed as cell growth at 5 uM after 48 hrs by SRB assay. Format: functional. The note with it: read-out: Activity.

As to `C/C(=C(/c1ccc(O)cc1)c1ccc(OCCN2CCCC2)cc1)c1ccccc1`, the growth at 0.01 µM with ACHN is 93%; in [2], 87%; in [10] it was 102%; in the data set with EKVX it was 91%. The growth at 10 µM is -19% in [1], -41% in data set [4] and 12% with KM12 [8]. Further, the growth at 0.1 µM amounted to 116% with MDA-MB-231 [3]; 91% in data set [9]; 102% in data set [11]; 103% with SK-MEL-2; 97% in the data set on MDA-MB-468. The growth at 100 µM was -96% in the data set on M14, -89% with KM12 [7] and -99% in data set [12]. Moreover, the values for the growth at 1 µM (in the data set with CCRF-CEM [5]; in [6]) were 102% and 88%, respectively.

For the compound `CCCCCCCCCC(=O)Oc1ccc(/C(=C(/C)c2ccccc2)c2ccc(OCCN3CCCC3)cc2)cc1`, the growth at 0.005 µM in [13] was 96%; in data set [17] it was 95%; in the data set with NCI-H322M it was 94%; with MDA-MB-231 [22] it was 99%; in data set [26], 88%; in data set [28] it was 101%. For the same compound, the values for the growth at 5 µM (in data set [14]; in the data set on MCF7; in [33]) were 101%, 36% and 82%, respectively. Besides, the growth at 0.5 µM is 61% in [15]; 88% in data set [20]; 76% in the data set on CCRF-CEM [21]; 86% in [27]; 72% in [30]; 79% in data set [32]. For the same compound, the growth at 50 µM was -82% with A549; -72% in [18]; -82% in data set [19]; -53% in data set [23]; -90% in data set [25]. Moreover, the growth at 0.05 µM in data set [16] turned out to be 83%; in the data set on U-251, 95%; in data set [24], 98%; in data set [31], 102%. In addition, the remaining at 3 h, 10 µM in [29] stood at 54%.
